Data taken from US10723778B2, “Variants of adrenomedullin and calcitonin gene-related peptide and methods of use” (The Board of Regents of the University of Oklahoma, priority 2015, dated 2020).
Read-outs that look alike come from different tables or passages of the source. Where no end group is shown, it is not given here.

Key:
[1] = target: T1, RAMP1-CLR ECD (CGRP); purified MBP-RAMP1 ECD-(GS)5-CLR ECD-H6 fusion protein (Homo sapiens, UniProt O60894+Q16602); experiment: Fluorescence polarization (FP) peptide binding competition assay, CGRP receptor ECD complex; conditions: for Receptor Selectivity, fold for CGRP: CGRP (RAMP1-CLR ECD) over AM1 (RAMP2-CLR ECD); for Receptor Selectivity (in words): CGRP vs AM1 receptor ECD complexes
T1 construct: MBP-hRAMP1.24-111-(Gly-Ser)5-hCLR.29-144-H6; made in house; host or cells: E. coli
Method: (§1) Fluorescence polarization peptide binding assay. […] The reactions (50 μL) were incubated for 2 hours at room temperature to reach equilibrium, and the anisotropy was measured in black half-area 96-well plates using a BMG LABTECH's POLARstar® Omega plate reader (Ortenberg, Germany). The reaction buffer was 50 mM HEPES, pH 7.5, 150 mM NaCl, 0.5 mg/ml fatty acid-free BSA, 0.5 mM EDTA, 0.5 mM maltose. Ki values were calculated using nonlinear regression fitting of the competition curves to the exact analytical equations of Roehrl et al. (Biochemistry (2004) 43:16056-66) using GraphPad Prism 5.0 (GraphPad Software, San Diego Calif.).
(§2) The ability of the indicated peptides to displace a FITC-Ahx-AM(37-52)NH2 [S45W, Q50W] probe (7 nM) from purified MBP-RAMP1 ECD-(GS)5-CLR ECD-H6 fusion protein (15 nM) was assessed by fluorescence polarization (anisotropy). The reactions were incubated for 2 hours at room temperature to reach equilibrium, and the anisotropy was measured in black half-area 96-well plates using a BMG LABTECH's POLARstar® Omega plate reader (Ortenberg, Germany). The reaction buffer was 50 mM HEPES, pH 7.5, 150 mM NaCl, 0.5 mg/ml fatty acid-free BSA, 0.5 mM EDTA, 0.5 mM maltose. KI values were calculated using nonlinear regression fitting of the competition curves to the exact analytical equations of Roehrl et al. (Biochemistry (2004) 43:16056-66) using GraphPad Prism 5.0 (GraphPad Software, San Diego Calif.).
as §2, with “Single representative experiments conducted with duplicate samples are shown. Error bars are S.E.M. The ability” for “The ability”, “displace a FITC-Ahx-AM(37-52)NH2[S45W, Q50W] probe” for “displace a FITC-Ahx-AM(37-52)NH2 [S45W, Q50W] probe”
A fluorescence polarization/anisotropy (FP) peptide-binding assay was developed using N-terminally FITC-labeled AM(37-52) S45W/Q50W as the probe, hereafter “FITC-AM W/W.” The probe was custom synthesized and HPLC-purified by RS Synthesis. The large size difference between the MBP-RAMP ECD-CLR ECD fusion proteins (˜65 kDa) and the probe (˜2.5 kDa) ensures a significant anisotropy difference between bound and free states of the probe. […] Kd values for the probe at each of the tethered ECD fusion proteins were determined in equilibrium saturation binding experiments (data not shown), and KI values were determined for unlabeled peptides in equilibrium competition experiments (Table 1; FIGS. 2-5). The data were analyzed according to exact analytical equations using non-linear regression curve fitting in GraphPad Prism 5.0 (GraphPad Software) via user-defined equations.

[2] = target: T2, RAMP2-CLR ECD (AM1); purified MBP-RAMP2 ECD [L106R]-(GS)5-CLR ECD-H6 fusion protein (Homo sapiens, UniProt O60895+Q16602, L106R); experiment: Fluorescence polarization (FP) peptide binding competition assay, AM1 receptor ECD complex; conditions: for RAMP2-CLR ECD (AM1) KI (nM) / Ki: FP competition, FITC-AM W/W probe 7 nM, fusion protein 110 nM
T2 construct: MBP-hRAMP2.55-140 [L106R]-(Gly-Ser-Ala)3-hCLR.29-144-H6; made in house; host or cells: E. coli
Method: as §1
FIG. 3(A-K) depicts binding of (A) AM-based peptide AM(37-52)NH2, and variant peptide AM(37-52)NH2[S45W, Q50W]; (B) AM-based peptide AM(37-52)NH2, variant peptide AM(37-52)NH2[Q50F], and variant peptide AM(37-52)NH2[Q50W]; (C) variant peptides AM(37-52)NH2[K46L], AM(37-52)NH2[K46M], and AM(37-52)NH2[D39F]; (D) variant peptides AM(37-52)NH2[D39F, K46L, Q50W], AM(37-52)NH2[D39F, K46L, Q50W, Y52F], and AM(37-52)NH2[S45W, K46L, Q50W, Y52F]; (E) variant peptides AM(37-52)NH2[[D39K], AM(37-52)NH2[K46L, Q50W], and AM(37-52)NH2[K46L, Q50W, Y52F]; (F) variant peptides AM(37-52)NH2[S45W, K46M, Q50W, Y52F], and AM(37-52)NH2[S45W, K46W, Q50W, Y52F]; (G) variant peptides AM(37-52)NH2[S45T, K46W, Q50W], AM(37-52)NH2[S45T, K46L, Q50W], and AM(37-52)NH2[S45W, K46L, S48G, Q50W, Y52F]; (H) variant peptide AM(37-52)NH2[S45W, K46L, I47M, Q50W, Y52F]; (I) variant peptides AM(37-52)NH2[S45R, K46W, Q50W], and AM(37-52)NH2[S45R, K46L, Q50W]; (J) variant peptides AM(37-52)NH2[S45R, K46W, S48G, Q50W], AM(37-52)NH2[S45R, K46L, S48G, Q50W], and AM(37-52)NH2[S45R, K46W, I47L, S48G, Q50W]; and (K) variant peptides AM(37-52)NH2[D39W, Q50W], and AM(37-52)NH2[D37V, S45W, K46L, Q50W, Y52F], to the purified AM1 receptor extracellular domain complex. Single representative experiments conducted with duplicate samples are shown. […] The reactions were incubated for 2 hours at room temperature to reach equilibrium, and the anisotropy was measured in black half-area 96-well plates using a BMG LABTECH's POLARstar® Omega plate reader (Ortenberg, Germany). The reaction buffer was 50 mM HEPES, pH 7.5, 150 mM NaCl, 0.5 mg/ml fatty acid-free BSA, 0.5 mM EDTA, 0.5 mM maltose. KI values were calculated using nonlinear regression fitting of the competition curves to the exact analytical equations of Roehrl et al. (Biochemistry (2004) 43:16056-66) using GraphPad Prism 5.0 (GraphPad Software, San Diego Calif.).
as §1, with “Single representative experiments conducted with duplicate samples are shown.” for “Fluorescence polarization peptide binding assay.”, “reactions” for “reactions (50 μL)”, “KI” for “Ki”
A fluorescence polarization/anisotropy (FP) peptide-binding assay was developed using N-terminally FITC-labeled AM(37-52) S45W/Q50W as the probe, hereafter “FITC-AM W/W.” The probe was custom synthesized and HPLC-purified by RS Synthesis. The large size difference between the MBP-RAMP ECD-CLR ECD fusion proteins (˜65 kDa) and the probe (˜2.5 kDa) ensures a significant anisotropy difference between bound and free states of the probe. […] Kd values for the probe at each of the tethered ECD fusion proteins were determined in equilibrium saturation binding experiments (data not shown), and KI values were determined for unlabeled peptides in equilibrium competition experiments (Table 1; FIGS. 2-5).

[3] = RAMP1-CLR ECD (CGRP) KI (nM), FP competition, FITC-AM W/W probe 7 nM, fusion protein 15 nM
[4] = FP competition, FITC-AM W/W probe 7 nM, fusion protein 15 nM
[5] = read-out: RAMP2-CLR ECD (AM1) KI

| Substance | Receptor Selectivity, fold for CGRP ([1]; FP assay) | Ki [1, 3] | other results |
| --- | --- | --- | --- |
| DKDNVAPRSLISPWGF-NH2 [K46L/Q50W/Y52F] | 2820-fold for CGRP | 31.6 nM |  |
| DKDNVAPRTLISPWGY-NH2 [S45T/K46L/Q50W] | 24-fold for CGRP | 65.6 nM |  |
| FVPTDTGPWGF-NH2 [N31D/V32T/S34P/K35W/A36G] |  | 6.85 nM | RAMP2-CLR ECD (AM1) KI (nM) [2]: No binding; Receptor Selectivity (in words) ([1]; FP assay): CGRP |
| DKKNVAPRSKISPQGY-NH2 [Peptide D39K] |  |  | Receptor Selectivity (in words) ([1]; FP assay): AM1; RAMP1-CLR ECD (CGRP) KI (nM) [1, 4]: No binding |
| FVPTDVGPFSF-NH2 [N31D/S34P/K35F/A36S] |  | 2.95 nM | Ki [2, 5]: > 10 µM; Receptor Selectivity (in words) ([1]; FP assay): CGRP over AM1 |
| DKDNVAPRSLISPQGY [Peptide K46L] |  |  | RAMP2-CLR ECD (AM1) KI (nM) [2]: No binding; RAMP1-CLR ECD (CGRP) KI (nM) [1, 4]: No binding |
| D39F: AM(37-52)NH2 scaffold variant peptide with D39F substitution (DKFNVAPRSKISPQGY-NH2) [Peptide D39F] |  |  | RAMP2-CLR ECD (AM1) KI (nM) [2]: No binding; RAMP1-CLR ECD (CGRP) KI (nM) [1, 4]: No binding |
| DKDNVAPRSMISPQGY [Peptide K46M] |  |  | RAMP2-CLR ECD (AM1) KI (nM) [2]: No binding; RAMP1-CLR ECD (CGRP) KI (nM) [1, 4]: No binding |
| DKFNVAPRSLISPWGY-NH2 [D39F/K46L/Q50W] | 22-fold for CGRP | 82.2 nM | Ki ([1]; RAMP1-CLR ECD (CGRP) pKI, FP competition, FITC-AM W/W probe 7 nM, fusion protein 15 nM, mean ± S.E.M of at least 3 independent experiments): 79.4 nM |
| DKFNVAPRSLISPWGF-NH2 [D39F/K46L/Q50W/Y52F] | 1213-fold for CGRP | 25 nM | Ki ([2]; mean ± S.E.M, read-out: RAMP2-CLR ECD (AM1) pKI (converted)): 28.2 µM |

Now from value to substance, other results behind:

| Receptor Selectivity, fold for CGRP ([1]; FP assay) | Ki [1, 3] | Substance | other results |
| --- | --- | --- | --- |
| 23-fold for CGRP | 70.8 nM | DKDNVAPRSLISPWGY-NH2 [K46L/Q50W] |  |
|  | 10500 nM | DKDNVAPRSKISPFGY-NH2 [Peptide Q50F] | Receptor Selectivity, fold for AM1 ([2]; AM1 (RAMP2-CLR ECD) over CGRP (RAMP1-CLR ECD), FP assay): 5-fold for AM1 |
|  | 0.78 nM | DKDNVAPRWLMSPWGF-NH2 [S45W/K46L/I47M/Q50W/Y52F] | RAMP2-CLR ECD (AM1) KI (nM) [2]: No binding; RAMP2-CLR ECD (AM1) KI (nM) ([2]; listed as AM(37-52)NH2[S45W, K46L, I47M, Q50W, Y52F]): no binding; Receptor Selectivity (in words) ([1]; FP assay): CGRP (very selective); Ki ([1]; KI for the CGRP receptor ECD complex, FP assay): ~0.78 nM |
| 28-fold for CGRP | 439 nM | DKDNVAPRTWISPWGY-NH2 [S45T/K46W/Q50W] |  |
|  | 8.13 nM | FVPTDVGPWAF-NH2 [N31D/S34P/K35W] | RAMP2-CLR ECD (AM1) KI (nM) [2]: No binding; Receptor Selectivity (in words) ([1]; FP assay): CGRP |
| 245-fold for CGRP | 1.32 nM | FVPTDVGPWSY-NH2 [N31D/S34P/K35W/A36S/F37Y] | Ki [2, 5]: 0.324 µM |
| ≥2754-fold for CGRP | < 1 nM | FVPTDTGPWSF-NH2 [N31D/V32T/S34P/K35W/A36S] | KI for the CGRP receptor ECD complex ([1]; FP assay): well into the pM range |
| 977-fold for CGRP | 7.94 nM | DKDNVAPRWMISPWGF-NH2 [S45W/K46M/Q50W/Y52F] |  |
| 821-fold for CGRP | 17.6 nM | FVPTDTGPWGY-NH2 [N31D/V32T/S34P/K35W/A36G/F37Y] |  |
| 692-fold for CGRP | 24 nM | DKDNVAPRWWISPWGF-NH2 [S45W/K46W/Q50W/Y52F] |  |
|  | 44.7 nM | DKDNVAPRWKISPWGY-NH2 [S45W/Q50W] | Receptor Selectivity (in words) ([1]; FP assay): Non-selective |
